Inhibition and IC50 data for 32 compounds are collected here from patent US7612211B2, “Benzimidazole TRPV1 inhibitors” (Janssen Pharmaceutica N.V., priority 2006, dated 2009).

This experiment deals with T1, hTRPV1 (Homo sapiens, UniProt Q8NER1).
T1 construct: expressed in transfected cells; host or cells: HEK293
Description: Human TRPV1 (hTRPV1) functional assay, FLIPR intracellular Ca2+, capsaicin challenge. In kind it is cell-based. Particulars: HEK293 cells expressing hTRPV1, capsaicin 0.030 μM challenge; for inhibition at 0.5 µM: test concentration of 0.5 μm, read-out: percent inhibition (symbol a); for IC50: derived from a variety of test concentrations, read-out: IC50 value (symbol c). On the procedure: The functional activity of the test compounds was determined by measuring changes in intracellular calcium concentration using a Ca^++-sensitive fluorescent dye and FLIPR™ technology. Increases in Ca^++ concentration were readily detected upon challenge with capsaicin.
HEK293 cells expressing hTRPV1 were grown on poly-D-lysine coated 384 well black-walled plates (BD 354663) and 1 day later loaded with Calcium 3 Dye for 35 min at 37° C., 5% CO2 and then for 25 min at room temperature, and subsequently tested for agonist-induced increases in intracellular Ca^2+ levels using FLIPR™ technology. Cells were challenged with test compounds (at varying concentrations) and intracellular Ca^2+ was measured for 5 min prior to the addition of capsaicin to all wells to achieve a final concentration of 0.030 μM eliciting ˜80% maximal response.
EC50 or IC50 values were determined from concentration-response studies, which were generated using the average of quadruplicate wells for each data point. The symbol “a” represents percent inhibition obtained at a test concentration of 0.5 μm; the symbol “b” represents percent inhibition obtained at a test concentration of 0.2 μm; the symbol “c” represents an IC50 value (nM) derived from a variety of test concentrations. The term “NA” means that the result is not applicable for a particular compound.

T1 sequence (Q8NER1 whole entry): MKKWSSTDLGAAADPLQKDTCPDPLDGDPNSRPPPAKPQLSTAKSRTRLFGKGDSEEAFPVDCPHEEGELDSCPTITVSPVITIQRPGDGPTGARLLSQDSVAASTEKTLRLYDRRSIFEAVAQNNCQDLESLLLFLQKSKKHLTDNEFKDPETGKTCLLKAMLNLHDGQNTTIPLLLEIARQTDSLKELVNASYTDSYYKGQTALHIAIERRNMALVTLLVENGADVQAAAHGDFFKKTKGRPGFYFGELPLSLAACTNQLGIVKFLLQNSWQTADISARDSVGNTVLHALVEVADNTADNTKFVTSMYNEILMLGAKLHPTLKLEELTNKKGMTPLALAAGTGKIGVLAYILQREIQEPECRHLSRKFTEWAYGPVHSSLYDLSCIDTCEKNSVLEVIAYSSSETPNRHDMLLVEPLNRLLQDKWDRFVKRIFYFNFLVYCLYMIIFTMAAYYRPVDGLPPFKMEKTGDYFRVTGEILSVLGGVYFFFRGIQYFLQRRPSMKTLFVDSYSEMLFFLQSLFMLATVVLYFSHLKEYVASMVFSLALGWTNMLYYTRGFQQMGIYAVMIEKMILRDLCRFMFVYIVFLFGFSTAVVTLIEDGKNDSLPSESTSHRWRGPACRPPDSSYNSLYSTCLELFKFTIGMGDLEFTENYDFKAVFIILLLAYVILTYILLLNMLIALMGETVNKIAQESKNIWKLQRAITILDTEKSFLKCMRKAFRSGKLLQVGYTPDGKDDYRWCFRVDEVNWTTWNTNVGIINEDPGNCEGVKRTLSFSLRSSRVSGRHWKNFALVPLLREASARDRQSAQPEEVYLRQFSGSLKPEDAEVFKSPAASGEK

One may read the inhibition as how much of the control response was suppressed. As for `NS(=O)(=O)c1ccccc1-c1ccc2[nH]c(COc3ccccc3F)nc2c1` [Cpd 3, 2-[2-(2-fluoro-phenoxymethyl)-1H-benzoimidazol-5-yl]-benzenesulfonamide], the inhibition at 0.5 µM worked out at 43%.
Regarding `NS(=O)(=O)c1ccccc1-c1ccc2[nH]c(COc3cccc(F)c3)nc2c1` [Cpd 4, 2-[2-(3-fluoro-phenoxymethyl)-1H-benzoimidazol-5-yl]-benzenesulfonamide], the inhibition at 0.5 µM was determined as 67%.
For the compound `NS(=O)(=O)c1ccccc1-c1ccc2[nH]c(COc3ccc(F)cc3)nc2c1` [Cpd 5, 2-[2-(4-fluoro-phenoxymethyl)-1H-benzoimidazol-5-yl]-benzenesulfonamide], the inhibition at 0.5 µM came out at 71%.
The IC50 is the concentration at which inhibition is half-maximal. As to `NS(=O)(=O)c1ccccc1-c1ccc2[nH]c(COc3cccc(Cl)c3)nc2c1` [Cpd 6, 2-[2-(3-chloro-phenoxymethyl)-1H-benzoimidazol-5-yl]-benzenesulfonamide], the IC50 worked out at 102 nM and the inhibition at 0.5 µM came to 87%.
As for `NS(=O)(=O)c1ccccc1-c1ccc2[nH]c(COc3ccc(Cl)cc3)nc2c1` [Cpd 7, 2-[2-(4-chloro-phenoxymethyl)-1H-benzoimidazol-5-yl]-benzenesulfonamide], the IC50 stood at 13 nM.
As to `NS(=O)(=O)c1ccccc1-c1ccc2[nH]c(COc3ccc(Br)cc3)nc2c1` [Cpd 8, 2-[2-(4-bromo-phenoxymethyl)-1H-benzoimidazol-5-yl]-benzenesulfonamide], the IC50 is 6.6 nM.
As to `NS(=O)(=O)c1ccccc1-c1ccc2[nH]c(COc3ccc(F)cc3F)nc2c1` [Cpd 9, 2-[2-(2,4-difluoro-phenoxymethyl)-1H-benzoimidazol-5-yl]-benzenesulfonamide], the IC50 came to 110 nM.
As for `NS(=O)(=O)c1ccccc1-c1ccc2[nH]c(COc3ccc(F)c(F)c3)nc2c1` [Cpd 10, 2-[2-(3,4-difluoro-phenoxymethyl)-1H-benzoimidazol-5-yl]-benzenesulfonamide], the IC50 turned out to be 120 nM.
The same measure, in the same setting: the figure for `NS(=O)(=O)c1ccccc1-c1ccc2[nH]c(COc3ccc(F)c(Cl)c3)nc2c1` [Cpd 11, 2-[2-(3-chloro-4-fluoro-phenoxymethyl)-1H-benzoimidazol-5-yl]-benzenesulfonamide] is 38 nM.
For `NS(=O)(=O)c1ccccc1-c1ccc2[nH]c(COc3ccc(F)c(C(F)(F)F)c3)nc2c1` [Cpd 12, 2-[2-(4-fluoro-3-trifluoromethyl-phenoxymethyl)-1H-benzoimidazol-5-yl]-benzenesulfonamide], the IC50 came out at 18 nM.
As for `NS(=O)(=O)c1ccccc1-c1ccc2[nH]c(COc3cccc(C(F)(F)F)c3)nc2c1` [Cpd 13, 2-[2-(3-trifluoromethyl-phenoxymethyl)-1H-benzoimidazol-5-yl]-benzenesulfonamide], the IC50 was 61 nM.
On to `NS(=O)(=O)c1ccccc1-c1ccc2[nH]c(COc3ccc(F)c(F)c3F)nc2c1` [Cpd 14, 2-[2-(2,3,4-trifluoro-phenoxymethyl)-1H-benzoimidazol-5-yl]-benzenesulfonamide], for which the IC50 worked out at 110 nM.
On to `NS(=O)(=O)c1ccccc1-c1ccc2[nH]c(COc3cccc(OC(F)(F)F)c3)nc2c1` [Cpd 15, 2-[2-(3-trifluoromethoxy-phenoxymethyl)-1H-benzoimidazol-5-yl]-benzenesulfonamide], for which the IC50 was determined as 25 nM.
Regarding `CNS(=O)(=O)c1ccccc1-c1ccc2[nH]c(COc3ccc(Cl)cc3)nc2c1` [Cpd 18, 2-[2-(4-chloro-phenoxymethyl)-1H-benzoimidazol-5-yl]-N-methyl-benzenesulfonamide], the 50% inhibitory concentration (IC50) amounted to 71 nM and the inhibition at 0.5 µM was found to be 97%.
On to `CNS(=O)(=O)c1ccccc1-c1ccc2[nH]c(COc3ccc(S(C)(=O)=O)cc3)nc2c1` [Cpd 19, 2-[2-(4-methanesulfonyl-phenoxymethyl)-1H-benzoimidazol-5-yl]-N-methyl-benzenesulfonamide], for which the IC50 came to 8 nM and the inhibition at 0.5 µM worked out at 100%.
For `CNS(=O)(=O)c1ccccc1-c1ccc2[nH]c(COc3ccc(S(=O)(=O)C(F)(F)F)cc3)nc2c1` [Cpd 20, N-methyl-2-[2-(4-trifluoromethanesulfonyl-phenoxymethyl)-1H-benzoimidazol-5-yl]-benzenesulfonamide], the IC50 came out at 20 nM and the inhibition at 0.5 µM was found to be 100%.
In the case of `CC(C)(O)c1ccccc1-c1ccc2[nH]c(COc3ccc(OC(F)(F)F)cc3)nc2c1` [Cpd 22, 2-{2-[2-(4-trifluoromethoxy-phenoxymethyl)-1H-benzoimidazol-5-yl]-phenyl}-propan-2-ol], the IC50 was found to be 4 nM and the inhibition at 0.5 µM stood at 100%.
In the case of `CC(C)(O)c1ccccc1-c1ccc2[nH]c(COc3ccc(Cl)cc3)nc2c1` [Cpd 23, 2-{2-[2-(4-chloro-phenoxymethyl)-1H-benzoimidazol-5-yl]-phenyl}-propan-2-ol], the IC50 worked out at 19 nM and the inhibition at 0.5 µM is 100%.
On to `CC(C)(O)c1ccccc1-c1ccc2[nH]c(COc3cccc(C(F)(F)F)c3)nc2c1` [Cpd 24, 2-{2-[2-(3-trifluoromethyl-phenoxymethyl)-1H-benzoimidazol-5-yl]-phenyl}-propan-2-ol], for which the IC50 worked out at 156 nM and the inhibition at 0.5 µM was found to be 92%.
Take `CC(C)(O)c1ccccc1-c1ccc2[nH]c(COc3ccc(S(C)(=O)=O)cc3)nc2c1` [Cpd 25, 2-{2-[2-(4-methanesulfonyl-phenoxymethyl)-1H-benzoimidazol-5-yl]-phenyl}-propan-2-ol]: the IC50 is 13 nM and the inhibition at 0.5 µM worked out at 100%.
In the case of `NS(=O)(=O)c1ccccc1-c1ccc2[nH]c(COc3ccccc3)nc2c1` [Cpd 26, 2-(2-phenoxymethyl-1H-benzoimidazol-5-yl)-benzenesulfonamide], the IC50 was 177 nM and the inhibition at 0.5 µM amounted to 87%.
For the compound `Cc1ccc(OCc2nc3cc(-c4ccccc4S(N)(=O)=O)ccc3[nH]2)cc1` [Cpd 27, 2-(2-p-tolyloxymethyl-1H-benzoimidazol-5-yl)-benzenesulfonamide], the concentration for half-maximal inhibition (IC50) was 12 nM and the inhibition at 0.5 µM came out at 98%.
In the same order, the values of `CC(C)c1ccc(OCc2nc3cc(-c4ccccc4S(N)(=O)=O)ccc3[nH]2)cc1` [Cpd 28, 2-[2-(4-isopropyl-phenoxymethyl)-1H-benzoimidazol-5-yl]-benzenesulfonamide] are 8.9 nM and 98%.
Turning to `NS(=O)(=O)c1ccccc1-c1ccc2[nH]c(COc3ccc(Cl)c(Cl)c3)nc2c1` [Cpd 29, 2-[2-(3,4-dichloro-phenoxymethyl)-1H-benzoimidazol-5-yl]-benzenesulfonamide], the IC50 was determined as 22 nM and the inhibition at 0.5 µM came out at 98%.
For `NS(=O)(=O)c1ccccc1-c1ccc2[nH]c(COc3ccc(Cl)c(C(F)(F)F)c3)nc2c1` [Cpd 30, 2-[2-(4-chloro-3-trifluoromethyl-phenoxymethyl)-1H-benzoimidazol-5-yl]-benzenesulfonamide], the IC50 came out at 13 nM and the inhibition at 0.5 µM was 99%.
On to `NS(=O)(=O)c1ccccc1-c1ccc2[nH]c(COc3cc(C(F)(F)F)cc(C(F)(F)F)c3)nc2c1` [Cpd 31, 2-[2-(3,5-bis-trifluoromethyl-phenoxymethyl)-1H-benzoimidazol-5-yl]-benzenesulfonamide], for which the IC50 came to 10.6 nM and the inhibition at 0.5 µM worked out at 97%.
Consider `CC(C)(C)c1ccc(OCc2nc3cc(-c4ccccc4S(N)(=O)=O)ccc3[nH]2)cc1` [Cpd 32, 2-[2-(4-tert-butyl-phenoxymethyl)-1H-benzoimidazol-5-yl]-benzenesulfonamide], for which the IC50 came out at 6 nM. Besides, the inhibition at 0.2 µM (test concentration of 0.2 μm, read-out: percent inhibition (symbol b)) was 100%.
On to `CCOc1ccc(OCc2nc3cc(-c4ccccc4S(N)(=O)=O)ccc3[nH]2)cc1` [Cpd 33, 2-[2-(4-ethoxy-phenoxymethyl)-1H-benzoimidazol-5-yl]-benzenesulfonamide], for which the concentration for half-maximal inhibition (IC50) stood at 44 nM and the inhibition at 0.5 µM came to 100%.
On the same counts, the results for `NS(=O)(=O)c1ccccc1-c1ccc2[nH]c(COc3ccc(SC(F)(F)F)cc3)nc2c1` [Cpd 34, 2-[2-(4-trifluoromethylsulfanyl-phenoxymethyl)-1H-benzoimidazol-5-yl]-benzenesulfonamide] are 13 nM and 100%.
As to `CC(=O)c1ccc(OCc2nc3cc(-c4ccccc4S(N)(=O)=O)ccc3[nH]2)cc1` [Cpd 35, 2-[2-(4-acetyl-phenoxymethyl)-1H-benzoimidazol-5-yl]-benzenesulfonamide], the IC50 turned out to be 16 nM and the inhibition at 0.5 µM was 97%.
On the same counts, the results for `NS(=O)(=O)c1ccccc1-c1ccc2[nH]c(COc3ccc4ccccc4c3)nc2c1` [Cpd 36, 2-[2-(naphthalen-2-yloxymethyl)-1H-benzoimidazol-5-yl]-benzenesulfonamide] are 32 nM and 98%.
With `NS(=O)(=O)c1ccccc1-c1ccc2[nH]c(COc3ccc4ncccc4c3)nc2c1` [Cpd 37, 2-[2-(quinolin-6-yloxymethyl)-1H-benzoimidazol-5-yl]-benzenesulfonamide], the inhibition at 0.5 µM came out at 50%.
